Reference: PubChem BioAssay (NCI)
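Five concentrations, 48 hours, 96-well plates. Definition used: TGI = concentration required for complete inhibition of growth.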

What was measured:
Assay in all cases: inhibition of tumour cell growth, NCI panel, 48 h
[1] = test system: SF-268 CNS
[2] = test system: MDA-N
[3] = test system: HS 578T breast
[4] = test system: BT-549 breast
[5] = test system: SF-295 CNS
[6] = test system: SN12C renal
[7] = test system: MOLT-4 leukemia
[8] = test system: SK-MEL-5 melanoma
[9] = test system: LOX IMVI melanoma
[10] = test system: HCT-15 colon
[11] = test system: SR leukemia
[12] = test system: PC-3 prostate
[13] = test system: OVCAR-3 ovarian
[14] = test system: RXF 393 renal
[15] = test system: MDA-MB-435
[16] = test system: IGROV1 ovarian
[17] = test system: K-562 leukemia
[18] = test system: EKVX NSCLC
[19] = test system: OVCAR-4 ovarian
[20] = test system: 786-0 renal
[21] = test system: KM12 colon
[22] = test system: SK-OV-3 ovarian
[23] = test system: T-47D breast
[24] = test system: OVCAR-8 ovarian
[25] = test system: MCF7 breast
[26] = test system: CCRF-CEM leukemia
[27] = test system: COLO 205 colon
[28] = test system: RPMI-8226 leukemia
[29] = test system: UO-31 renal
[30] = test system: HL-60(TB) leukemia
[31] = test system: HT29 colon
[32] = test system: SNB-19 CNS
[33] = test system: SF-539 CNS
[34] = test system: HCT-116 colon
[35] = test system: SK-MEL-2 melanoma
[36] = test system: NCI-H226 lung
[37] = test system: SW-620 colon
[38] = test system: SK-MEL-28 melanoma
[39] = test system: DU-145 prostate
[40] = test system: NCI-H522 lung
[41] = test system: HOP-92 NSCLC
[42] = test system: HOP-62 NSCLC
[43] = test system: M14 melanoma
[44] = test system: MALME-3M melanoma
[45] = test system: SNB-75 CNS
[46] = test system: NCI/ADR-RES ovarian
[47] = test system: OVCAR-5 ovarian
[48] = test system: A549 NSCLC
[49] = test system: CAKI-1 renal
[50] = test system: NCI-H23 lung
[51] = test system: TK-10 renal
[52] = test system: UACC-62 melanoma
[53] = test system: U251 CNS
[54] = test system: MDA-MB-231 breast
[55] = test system: NCI-H460 lung
[56] = test system: UACC-257 melanoma
[57] = test system: ACHN renal
[58] = test system: HCC-2998 colon
[59] = test system: A498 renal

COc1ccc(-c2cc(-c3cc4cc(Br)ccc4nc3Cl)c(C#N)c(N)n2)cc1
TGI [1]: > 12.5 µM
TGI [2]: > 12.5 µM
TGI [3]: > 12.5 µM
TGI [4]: > 12.5 µM
TGI [5]: > 12.5 µM
TGI [6]: > 12.5 µM
TGI [7]: > 12.5 µM
TGI [8]: > 12.5 µM
TGI [9]: > 12.5 µM
TGI [10]: > 12.5 µM
TGI [11]: > 12.5 µM
TGI [12]: > 12.5 µM
TGI [13]: > 12.5 µM
TGI [14]: > 12.5 µM
TGI [15]: > 12.5 µM
TGI [16]: > 12.5 µM
TGI [17]: > 12.5 µM
TGI [18]: > 12.5 µM
TGI [19]: > 12.5 µM
TGI [20]: > 12.5 µM
TGI [21]: > 12.5 µM
TGI [22]: > 12.5 µM
TGI [23]: > 12.5 µM
TGI [24]: > 12.5 µM
TGI [25]: > 12.5 µM
TGI [26]: > 12.5 µM
TGI [27]: > 12.5 µM
TGI [28]: > 12.5 µM
TGI [29]: > 12.5 µM
TGI [30]: > 12.5 µM
TGI [31]: > 12.5 µM
TGI [32]: > 12.5 µM
TGI [33]: > 12.5 µM
TGI [34]: > 12.5 µM
TGI [35]: > 12.5 µM
TGI [36]: > 12.5 µM
TGI [37]: > 12.5 µM
TGI [38]: > 12.5 µM
TGI [39]: > 12.5 µM
TGI [40]: > 12.5 µM
TGI [41]: > 12.5 µM
TGI [42]: > 12.5 µM
TGI [43]: > 12.5 µM
TGI [44]: > 12.5 µM
TGI [45]: > 12.5 µM
TGI [46]: > 12.5 µM
TGI [47]: > 12.5 µM
TGI [48]: > 12.5 µM
TGI [49]: > 12.5 µM
TGI [50]: > 12.5 µM

O=c1ccn(CC2(CO)CC(Cc3ccccc3)C2)c(=O)[nH]1 (stereo unspecified)
TGI [1]: > 100 µM
TGI [2]: > 100 µM
TGI [3]: > 100 µM
TGI [4]: > 100 µM
TGI [51]: > 100 µM
TGI [5]: > 100 µM
TGI [6]: > 100 µM
TGI [7]: > 100 µM
TGI [8]: > 100 µM
TGI [9]: > 100 µM
TGI [10]: > 100 µM
TGI [11]: > 100 µM
TGI [52]: > 100 µM
TGI [53]: > 100 µM
TGI [12]: > 100 µM
TGI [13]: > 100 µM
TGI [14]: > 100 µM
TGI [15]: > 100 µM
TGI [16]: > 100 µM
TGI [17]: > 100 µM
TGI [18]: > 100 µM
TGI [54]: > 100 µM
TGI [19]: > 100 µM
TGI [20]: > 100 µM
TGI [21]: > 100 µM
TGI [22]: > 100 µM
TGI [23]: > 100 µM
TGI [24]: > 100 µM
TGI [25]: > 100 µM
TGI [26]: > 100 µM
TGI [27]: > 100 µM
TGI [28]: > 100 µM
TGI [29]: > 100 µM
TGI [30]: > 100 µM
TGI [31]: > 100 µM
TGI [55]: > 100 µM
TGI [33]: > 100 µM
TGI [34]: > 100 µM
TGI [35]: > 100 µM
TGI [36]: > 100 µM
TGI [56]: > 100 µM
TGI [37]: > 100 µM
TGI [38]: > 100 µM
TGI [39]: > 100 µM
TGI [40]: > 100 µM
TGI [57]: > 100 µM
TGI [58]: > 100 µM
TGI [42]: > 100 µM
TGI [59]: > 100 µM
TGI [44]: > 100 µM
TGI [45]: > 100 µM
TGI [46]: > 100 µM
TGI [47]: > 100 µM
TGI [48]: > 100 µM
TGI [49]: > 100 µM
TGI [50]: > 100 µM
